Earlier results as cited in patent US7611910B2, “Method for diagnosis of alzheimer's disease” (Intracell, LLC, priority 1998, dated 2009).

Settings: patients treated with indomethacin

With COc1ccc2c(c1)c(CC(=O)O)c(C)n2C(=O)c1ccc(Cl)cc1 [indomethacin] as the compound, how does the “progression of Alzheimer's disease” value read?
The value was “reduced progression”.
